Measured values reported in patent US11884638B2, “Compound or salt thereof, composition for cysteine detection, fluorescent probe and composition for diagnosing cancer containing the same, method for detecting cysteine, method for providing information for diagnosing cancer, and method for producing compound” (Industry-Academic Cooperation Group of Kyung Hee University, priority 2021, dated 2024).

What was measured:
[1] = Binding selectivity of Compound 1 to cysteine in urine by fluorescence change; settings: 37° C. 40 minutes, excitation 488 nm; for selectivity of fluorescence change among biomolecules detectable in urine: each biomolecule 100 μM (cysteine, glutathione, aspartic acid, glutamine, lysine, arginine, adenosine triphosphate, sucrose, ammonium), FIG. 2(b)
Description: Specifically, in order to determine whether Compound 1 selectively binds to cysteine in urine, cysteine and N-ethylmaleimide (NEM) (500 μM) capable of lowering cysteine concentration in urine were used. In addition, glutathione, aspartic acid, glutamine, lysine, arginine, adenosine triphosphate, sucrose, and ammonium used in the experiment were products obtained from TCI (Tokyo Chemical Industry Co., Ltd), Sigma Aldrich, and Alfa Company. The concentration of each biomolecule was equally measured at 100 μM. In addition, in order to obtain fluorescence spectra and values, Compound 1 and an unknown sample were stirred at 37° C. for 40 minutes and then excited at a wavelength of 488 nm.
The types of biomolecules indicated on the x-axis of FIG. 2(b) are as follows, and the following Probe 1 corresponds to Compound 1: • (A) Probe 1; • (B) Probe 1 with L-cysteine; • (C) Probe 1 with L-glutathione; • (D) Probe 1 with L-aspartic acid; • (E) Probe 1 with L-glutamine; • (F) Probe 1 with L-lysine; • (G) Probe 1 with L-arginine; • (H) Probe 1 with adenosine triphosphate; • (I) Probe 1 with sucrose; • (J) Probe 1 with ammonium.

[2] = Fluorescence spectral analysis of Compound 1 in urines from patients with other diseases including cancer; set-up: species or system human; settings: Compound 1 100 μM, 37° C. 40 minutes
Excerpt: The urines used in the experiment were collected from urolithiasis patients (B, N=162), kidney cancer patients (C, N=162), prostate cancer patients (D, N=162), bladder cancer patients (E, N=162), cervical cancer patients (F, N=100), diabetic patients (G, N=100), pituitary cancer patients (H, N=100), adrenal cancer patients (I, N=100), lung cancer patients (J, N=100), ovarian cancer patients (K, N=100), pancreatic and biliary tract cancer patients (L, N=100), and pancreatic cancer patients (M, N=100). In the measurement method, each of the collected urine (198 μL) and Compound 1 (100 μM) were mixed together, the fluorescence spectra thereof were measured, and the highest fluorescence intensity value was taken. Then, each mixture was stirred at 37° C. for 40 minutes, and the highest fluorescence intensity value obtained from the fluorescence spectra was taken. The difference between the fluorescence intensity values before and after the reaction was shown as a bar graph.

[3] = Fluorescence emission of Compound 1 with cysteine added to non-pretreated urine; set-up: species or system human
Description: In order to confirm the reaction of Compound 1 with cysteine in urine, non-pretreated urine (198 μL) was treated with varying concentrations (1 to 120 ng/μL) of cysteine, and then treated with Compound 1 (100 μM). The resulting urines were stirred in a stirrer at 37° C. for 40 minutes, and the fluorescence spectra were measured (excitation wavelength: 488 nm). In addition, Compound 1 was used after dissolution in a DMSO solution at 10 mM, and the amount of DMSO in the final solvent condition was controlled to be the same for each container (less than 1%).
Specifically, a spectro-fluorophotometer (SHIMADZU Corp. RF-6000, Japan) was used to analyze the emission spectrum, and the glass cuvette used for fluorescence measurement was a standard quartz cell (internal volume=[…], Hellma Analytics, Jena, Germany) having a thickness of 1 cm on all sides. In addition, a chamber (WUV-L10, DAIHAN Scientific) capable of excitation at a wavelength of 365 nm was used to visually observe the fluorescence change.
When the urine was treated with compound 1 (100 μM) and cysteine (60 ng/μL or higher), fluorescence changes were visible without a separate fluorescence measurement device. Although fluorescence changes were not visible when the urine was treated with Compound 1 (100 μM) and cysteine (concentration of 10 ng/μL or lower), examination was made as to whether fluorescence changes in this treatment could be confirmed using a fluorescence measurement device (FIG. 1(b)). Referring to FIG. 1(b), significant fluorescence changes could be obtained in the presence of 1 ng/μL of cysteine in urine, and statistical data thereon are shown below.

[4] = Fluorescence spectral analysis of Compound 1 in urine derived from cervical cancer patients; set-up: species or system human; settings: Compound 1 100 μM, urines N=100 versus normal N=308, 37° C. 40 minutes
Description: Specifically, fluorescence spectral analysis was performed immediately after treatment of the urines with Compound 1 (black line). After stirring at 37° C. for 40 minutes, fluorescence spectral analysis was performed (red line). […]

fluorescence value in urine containing cysteine ([1]; FIG. 2(a)): high fluorescence value
fluorescence value on co-treatment with N-ethylmaleimide which reduces cysteine ([1]; N-ethylmaleimide 500 μM, urine, FIG. 2(a)): fluorescence value decreased
wavelength of fluorescence turn-on upon binding to cysteine ([3]; when bound to cysteine): ~550 nm
SMILES: O=[N+]([O-])c1ccc(Oc2c(F)c(F)c(F)c(F)c2F)c2nonc12 [Compound 1, 4-nitro-7-(Perfluorophenoxy)benzo[c][1,2,5]oxadiazole]
selectivity of fluorescence change among biomolecules detectable in urine [1]: significant fluorescence change could be observed only for cysteine
selectivity of fluorescence change among biomolecules detectable in urine ([1]; listed as 4-nitro-7-(perfluorophenoxy)benzo[c][1,2,5]oxadiazole): selectively detect cysteine in urine without interference of other biomolecules
patient group with the largest fluorescence emission effect ([2]; cervical cancer patients (F) compared with the other patient groups): greatest in the case of cervical cancer patients
fluorescence emission (difference of highest fluorescence intensity before and after reaction) in patient urines ([2]; urines of urolithiasis (B), cervical cancer (F), adrenal cancer (I), ovarian cancer (K), pancreatic and biliary tract cancer (L) patients): noticeable fluorescence emission was observed
cysteine concentration at which fluorescence changes were visible without a separate fluorescence measurement device ([3]; normal urine, Compound 1 100 μM, 37° C. 40 minutes, excitation at 365 nm): ≥ 60 ng/µL
cysteine concentration at which fluorescence changes were not visible ([3]; normal urine, Compound 1 100 μM, 37° C. 40 minutes, excitation at 365 nm, by eye): ≤ 10 ng/µL
cysteine concentration in urine giving significant fluorescence changes using a fluorescence measurement device ([3]; urine, Compound 1 100 μM, 37° C. 40 minutes, excitation 488 nm): 1 ng/µL
fluorescence values after reaction in urines derived from cervical cancer patients [4]: high fluorescence values
